“And” between values parts separate entries of the source, which are not always exact repeats. Equal values may be shown once. Read-outs that look alike come from different tables or passages of the source. Where a SMILES comes first, the peptide text is derived from it. The star is where a group is joined. Myristoyl = CCCCCCCCCCCCCC(=O)*
Test system: perforin-positive and CD3+ cells
Type: in vivo, golden Syrian hamsters
Settings: hamster lungs 2 dpi; for %CD3+ / %Perforin+: individual animals, n=5

Structure (SMILES): CCCCCCCCCCCCCC(=O)N[C@H](C(=O)NCC(=O)N[C@H](C(=O)N[C@@H](CCCNC(=N)N)C(=O)N[C@@H](CC(=O)O)C(=O)N[C@@H](CCCNC(=N)N)C(=O)N[C@@H](CCCCN)C(=O)N[C@@H](CCCCN)C(=O)N[C@@H](CCCCN)C(=O)N[C@@H](CC(N)=O)C(=O)N[C@@H](CCCCN)C(=O)N[C@@H](C)C(=O)N[C@@H](CCCNC(=N)N)C(=O)N[C@@H](CO)C(=O)O)[C@@H](C)CC)[C@@H](C)O [NACE2i] (Myristoyl-TGIRDRKKKNKARS-OH)
- %CD3+ (i.p. NACE2i): 7.228% and 6.247% and 7.351% and 8.086%
- %Perforin+ (i.p. NACE2i): 14.1151% and 9.254% and 20.5795% and 12.5121%
- %CD3+ (i.v. NACE2i): 6.775% and 4.046% and 7.435% and 7.728% and 7.891%
- %Perforin+ (i.v. NACE2i): 8.914% and 7.676% and 12.1345% and 7.891% and 7.955%
- number of CD3+ cells (i.v. or i.p.): significantly increased
- proportion of perforin-positive cells (i.v. or i.p.): significantly increased
